In ChEMBL document CHEMBL4819142, “Synthesis of propargylamine mycophenolate analogues and their selective cytotoxic activity towards neuroblastoma SH-SY5Y cell line” (Bioorg Med Chem Lett, 2021):

How the values were obtained:
[1] = Cytotoxicity against human KKUM213 cells assessed as growth inhibition measured by SRB assay; type: functional, cell-based; settings: KKU-M213
[2] = tested on: FaDu; assay: Cytotoxicity against human FaDu cells assessed as growth inhibition measured by SRB assay; type: functional, cell-based
[3] = tested on: HT-29; assay: Cytotoxicity against human HT-29 cells assessed as growth inhibition measured by SRB assay; type: functional, cell-based
[4] = tested on: MDA-MB-231; assay: Cytotoxicity against human MDA-MB-231 cells assessed as growth inhibition measured by SRB assay; type: functional, cell-based
[5] = tested on: A549; assay: Cytotoxicity against human A549 cells assessed as growth inhibition measured by SRB assay; type: functional, cell-based
[6] = tested on: SH-SY5Y; assay: Cytotoxicity against human SH-SY5Y cells assessed as growth inhibition measured by SRB assay; type: functional, cell-based
[7] = Cytotoxicity against human […] cells assessed as growth inhibition measured by SRB assay; type: cell-based

Row | SMILES | IC50 [1] [µM] | IC50 [2] [µM] | IC50 [3] [µM] | IC50 [4] [µM] | IC50 [5] [µM] | IC50 [6] [µM] | IC50 [7] [µM]
1 | COC(=O)CC/C(C)=C/Cc1c(OC)c(C)c2c(c1OCC#CCN1CCN(c3ccccc3)CC1)C(=O)OC2 | > 50 | > 50 | > 50 | > 50 | 22 | 9.14 | > 50
2 | COC(=O)CC/C(C)=C/Cc1c(OC)c(C)c2c(c1OCC#CCN1CCN(c3ccccc3F)CC1)C(=O)OC2 | > 50 | > 50 | > 50 | > 50 | 45.3 | 35.8 | > 50
3 | COC(=O)CC/C(C)=C/Cc1c(OC)c(C)c2c(c1OCC#CCN1CCN(CCO)CC1)C(=O)OC2 | > 50 | > 50 | > 50 | > 50 | > 50 | 35.7 | > 50
4 | COC(=O)CC/C(C)=C/Cc1c(OC)c(C)c2c(c1OCC#CCN1CCN(C(=O)C3COc4ccccc4O3)CC1)C(=O)OC2 (stereo not given) | > 50 | > 50 | > 50 | > 50 | > 50 | > 50 | > 50
5 | CCCCN(CC#CCOc1c(C/C=C(\C)CCC(=O)OC)c(OC)c(C)c2c1C(=O)OC2)CCCC | 38.2 | 30.9 | > 50 | 39.8 | 30.6 | 21.5 | 36
6 | C#CCOc1c(C/C=C(\C)CCC(=O)OC)c(OC)c(C)c2c1C(=O)OC2 | 35.7 | 15.2 | 28.8 | 49.2 | 31.8 | 3.07 | 25.2
7 | C=CCN(CC#CCOc1c(C/C=C(\C)CCC(=O)OC)c(OC)c(C)c2c1C(=O)OC2)CC=C | > 50 | > 50 | > 50 | > 50 | 43.5 | 36.4 | 36.4
8 | COC(=O)CC/C(C)=C/Cc1c(OC)c(C)c2c(c1OCC#CCN1CCN(c3ccc(C#N)cc3)CC1)C(=O)OC2 | > 50 | > 50 | > 50 | > 50 | > 50 | 37.8 | > 50
9 | COc1c(C)c2c(c(O)c1C/C=C(\C)CCC(=O)O)C(=O)OC2 [MYCOPHENOLIC ACID] | 7.16 | 6.72 | 6.48 | 7.83 | 1.21 | 0.56 | 7.19
10 | COC(=O)CC/C(C)=C/Cc1c(OC)c(C)c2c(c1OCC#CCN1CCC(C(=O)O)CC1)C(=O)OC2 | > 50 | > 50 | > 50 | > 50 | > 50 | 47.2 | > 50
11 | COC(=O)CC/C(C)=C/Cc1c(OC)c(C)c2c(c1OCC#CCN1CCCc3ccccc31)C(=O)OC2 | > 50 | > 50 | > 50 | > 50 | 18 | 9.57 | > 50
12 | COC(=O)CC/C(C)=C/Cc1c(OC)c(C)c2c(c1OCC#CCN1CCN(C(c3ccccc3)c3ccc(Cl)cc3)CC1)C(=O)OC2 (stereo not given) | > 50 | > 50 | > 50 | > 50 | 29.1 | 9.9 | > 50
13 | COC(=O)CC/C(C)=C/Cc1c(OC)c(C)c2c(c1OCC#CCN1CCC(Cc3ccccc3)CC1)C(=O)OC2 | > 50 | > 50 | > 50 | > 50 | 40.7 | 24.5 | > 50
14 | COC(=O)CC/C(C)=C/Cc1c(OC)c(C)c2c(c1OCC#CCN1CCC(C(=O)OC)CC1)C(=O)OC2 | > 50 | > 50 | > 50 | > 50 | 40.5 | 41.2 | > 50
15 | COC(=O)CC/C(C)=C/Cc1c(OC)c(C)c2c(c1OCC#CCN(CC#CCOc1c(C/C=C(\C)CCC(=O)OC)c(OC)c(C)c3c1C(=O)OC3)CCC(C)C)C(=O)OC2 | 48.3 | 46.7 | > 50 | 48.6 | 27.5 | 20.6 | 48.2
16 | COC(=O)CC/C(C)=C/Cc1c(OC)c(C)c2c(c1OCC#CCN1CCN(c3ncccn3)CC1)C(=O)OC2 | > 50 | > 50 | > 50 | > 50 | > 50 | > 50 | > 50
17 | COC(=O)CC/C(C)=C/Cc1c(OC)c(C)c2c(c1OCC#CCN1CCN(c3ccc(O)cc3)CC1)C(=O)OC2 | > 50 | > 50 | > 50 | > 50 | > 50 | 46.1 | > 50
18 | COC(=O)CC/C(C)=C/Cc1c(OC)c(C)c2c(c1OCC#CCN1CCN(C(c3ccc(F)cc3)c3ccc(F)cc3)CC1)C(=O)OC2 | > 50 | > 50 | > 50 | > 50 | 34.1 | 25.8 | > 50
19 | COC(=O)CC/C(C)=C/Cc1c(O)c2c(c(C)c1OC)COC2=O | 7.45 | 6.15 | 23.7 | 9.62 | 0.82 | 0.26 | 5.82
20 | COC(=O)CC/C(C)=C/Cc1c(OC)c(C)c2c(c1OCC#CCN1CCN(C(C)=O)CC1)C(=O)OC2 | > 50 | > 50 | > 50 | > 50 | > 50 | > 50 | > 50
21 | Cc1c2ccncc2c(C)c2c1[nH]c1ccccc12 [ELLIPTECINE] | 1.97 | 1.85 | 1.95 | 2.03 | 1.16 | 2.13 | 1.89
22 | COC(=O)CC/C(C)=C/Cc1c(OC)c(C)c2c(c1OCC#CCN1CCN(c3ccccc3OC)CC1)C(=O)OC2 | > 50 | > 50 | > 50 | > 50 | > 50 | 43.6 | > 50
23 | COC(=O)CC/C(C)=C/Cc1c(OC)c(C)c2c(c1OCC#CCN1CCC(c3ccccc3)c3ccccc31)C(=O)OC2 (stereo not given) | 25.9 | 24.6 | 39.5 | 28.7 | 7.68 | 6.45 | 23.3
24 | COC(=O)CC/C(C)=C/Cc1c(OC)c(C)c2c(c1OCC#CCN1CCOCC1)C(=O)OC2 | > 50 | > 50 | > 50 | > 50 | > 50 | > 50 | > 50
25 | COC(=O)CC/C(C)=C/Cc1c(OC)c(C)c2c(c1OCC#CCN1CCN(C(c3ccccc3)c3ccccc3)CC1)C(=O)OC2 | > 50 | > 50 | > 50 | > 50 | 32.7 | 23.7 | > 50
26 | COC(=O)CC/C(C)=C/Cc1c(OC)c(C)c2c(c1OCC#CCN1CCN(c3ccc(C)cc3)CC1)C(=O)OC2 | > 50 | > 50 | > 50 | > 50 | > 50 | 37.7 | > 50
27 | COC(=O)CC/C(C)=C/Cc1c(OC)c(C)c2c(c1OCC#CCN1CCN(Cc3ccc4c(c3)OCO4)CC1)C(=O)OC2 | > 50 | > 50 | > 50 | > 50 | 45.5 | 34.8 | > 50
28 | CCCCNc1ccc(CC#CCOc2c(C/C=C(\C)CCC(=O)OC)c(OC)c(C)c3c2C(=O)OC3)cc1 | 22.9 | 21.2 | 36.7 | 19.8 | 6.97 | 5.96 | 18.3
29 | COC(=O)CC/C(C)=C/Cc1c(OC)c(C)c2c(c1OCC#CCN1CCN(Cc3ccc(Cl)cc3)CC1)C(=O)OC2 | > 50 | > 50 | > 50 | > 50 | > 50 | 31.2 | > 50
30 | COC(=O)CC/C(C)=C/Cc1c(OC)c(C)c2c(c1OCC#CCN1CCCC1)C(=O)OC2 | > 50 | > 50 | 46.5 | > 50 | 35.9 | 31.1 | > 50
